In ChEMBL document CHEMBL1136384, “Design, synthesis and biological evaluation of hetaryl-nucleoside derivatives as inhibitors of chitin synthase” (Bioorg Med Chem Lett, 2003):

Legend:
[1] = Compound tested for the inhibition of chitin synthase using Saccharomyces cerevisiae cells (X2180 strain)
[2] = test system: Aspergillus fumigatus; test: Inhibitory activity tested against Aspergillus fumigatus at 256 ug/mL concentration; assay type: functional
[3] = test system: Candida albicans; test: Inhibitory activity tested against Candida albicans at 256 ug/mL concentration; assay type: functional
[4] = test system: Cryptococcus neoformans; test: Inhibitory activity tested against Cryptococcus neoformans at 256 ug/mL concentration; assay type: functional
[5] = test system: Saccharomyces cerevisiae; test: Inhibitory activity tested against Saccharomyces cerevisiae at 256 ug/mL concentration; assay type: functional

| IC50 [1] [mM] | SMILES | Ki [1] [µM] | further results |
| --- | --- | --- | --- |
| 0.8 | O=c1ccn([C@@H]2O[C@H](CO[C@@H]3O[C@@H](CO)[C@@H](O)[C@H](OCc4ccc5ccccc5n4)[C@@H]3O)[C@@H](O)[C@H]2O)c(=O)[nH]1 | 250 | – |
| 0.0005 | C[C@@H]([C@H](N)C(=O)N[C@H](C(=O)O)[C@H]1O[C@@H](n2ccc(=O)[nH]c2=O)[C@H](O)[C@@H]1O)[C@H](O)c1ccc(O)cn1 (stereo in doubt) [NIKKOMYCIN] | 0.34 | – |
| 3.2 | O=C(NC[C@H]1OC(n2ccc(=O)[nH]c2=O)[C@H](O)[C@@H]1O)[C@H](O)[C@@H](O)C(=O)OCc1ccc(O)cn1 (stereo partly specified) | – | – |
| 0.00034 | C[C@@H]([C@H](N)C(=O)N[C@H](C(=O)O)[C@H]1O[C@@H](n2ccc(=O)[nH]c2=O)[C@H](O)[C@@H]1O)[C@H](O)c1ccc(O)cn1 [NIKKOMYCIN] | – | – |
| 3.2 | O=c1ccn([C@@H]2O[C@H](CO[C@@H]3O[C@@H](COCc4ccc5ccccc5n4)[C@@H](O)[C@H](O)[C@@H]3O)[C@@H](O)[C@H]2O)c(=O)[nH]1 | – | inhibition at 256 µg/mL [2]: 30%; inhibition at 256 µg/mL [3]: 30%; inhibition at 256 µg/mL [4]: 80%; inhibition [5]: 30% |
| 2 | O=c1ccn([C@@H]2O[C@H](CO[C@@H]3O[C@@H](CO)[C@@H](OCc4ccc5ccccc5n4)[C@H](O)[C@@H]3O)[C@@H](O)[C@H]2O)c(=O)[nH]1 | – | – |
| 2 | O=C(NC[C@@H]1OC(n2ccc(=O)[nH]c2=O)[C@H](O)[C@@H]1O)[C@H](O)[C@@H](O)C(=O)OCc1ccc2ccccc2n1 (stereo partly specified) | 800 | – |
| 10.8 | COCOc1ccc(COC(=O)CC(=O)OC[C@H]2OC(n3ccc(=O)[nH]c3=O)[C@H](O)[C@@H]2O)nc1 (stereo partly specified) | – | – |
| 2.8 | O=C(CC(=O)OC[C@H]1OC(n2ccc(=O)[nH]c2=O)[C@H](O)[C@@H]1O)OCc1ccc(O)cn1 (stereo partly specified) | – | – |
